Here are results for 6 compounds from ChEMBL document CHEMBL4334425, “Eradicating uropathogenic Escherichia coli biofilms with a ciprofloxacin-dinitroxide conjugate” (Medchemcomm, 2019).

Test [1] relates to Escherichia coli. Nature of the test: Antibacterial activity against Escherichia coli UTI89 incubated for 18 hrs by broth microdilution method. It counts as functional. On the technique in general: Broth dilution looks for growth in wells or tubes with falling amounts of substance.
The subject of test [2] is Escherichia coli. Nature of the test: Antibacterial activity against Escherichia coli UTI89 incubated for 18 hrs in presence of 1:2 ratio of ciprofloxacin to compound by broth microdilution method. Type of test: functional.
The subject of test [3] is Escherichia coli. Nature of the test: Antibiofilm activity against Escherichia coli UTI89 incubated for 24 hrs. It counts as functional.
In test [4] the test system is Escherichia coli. Nature of the test: Antibiofilm activity against Escherichia coli UTI89 incubated for 24 hrs in presence of 1:2 ratio of ciprofloxacin to compound. It counts as functional.
Test [5] deals with Escherichia coli. Nature of the test: Ratio of MBEC for ciprofloxacin to compound for antibiofilm activity against Escherichia coli UTI89. It counts as functional.
The test system of test [6] is Escherichia coli. Nature of the test: Antibiofilm activity against Escherichia coli UTI89 assessed as reduction in biofilm residing cells at 12.5 uM incubated for 24 hrs relative to control. Type of test: functional. On the set-up: scale not given: the % may be the effect or the level left.
Test [7] concerns Escherichia coli. Nature of the test: Antibiofilm activity against Escherichia coli UTI89 assessed as reduction in viable bioflim associated cells at 12.5 uM incubated for 24 hrs relative to control. Type of test: functional.
Test [8] deals with Escherichia coli. Nature of the test: Antibiofilm activity against Escherichia coli UTI89 assessed as small bacterial cells at 400 uM incubated for 24 hrs by SYTO9 and PI staining based fluorescence microscopic method. Type of test: functional, organism-based.
Test [9] concerns Escherichia coli. Nature of the test: Antibiofilm activity against Escherichia coli UTI89 assessed as dead cells at 400 uM incubated for 24 hrs by SYTO9 and PI staining based fluorescence microscopic method. Type of test: functional, organism-based.
Test [10] has as its system Escherichia coli. Nature of the test: Antibiofilm activity against Escherichia coli UTI89 at 12.5 uM incubated for 24 hrs by SYTO9 and PI staining based fluorescence microscopic method. It counts as functional.
Test [11] relates to Escherichia coli. Nature of the test: Antibiofilm activity against Escherichia coli UTI89 at 400 uM incubated for 24 hrs by SYTO9 and PI staining based fluorescence microscopic method. Type of test: functional.
The subject of test [12] is Escherichia coli. Nature of the test: Antibiofilm activity against Escherichia coli UTI89 assessed as cell filamentation at 12.5 to 25 uM incubated for 24 hrs by SYTO9 and PI staining based fluorescence microscopic method. Type of test: functional, organism-based.
Test [13] concerns Escherichia coli. Nature of the test: Potentiation of ciprofloxacin-induced antibiofilm activity against Escherichia coli UTI89 assessed as increase in ciprofloxacin-induced log reduction in CFU at 20 uM incubated for 24 hrs. It counts as functional.
The subject of test [14] is Escherichia coli. Nature of the test: Potentiation of ciprofloxacin-induced antibiofilm activity against Escherichia coli UTI89 assessed as increase in ciprofloxacin-induced log reduction in CFU at 40 uM incubated for 24 hrs. Type of test: functional.
Test [15] relates to Escherichia coli. Nature of the test: Potentiation of ciprofloxacin-induced antibiofilm activity against Escherichia coli UTI89 assessed as increase in ciprofloxacin-induced log reduction in CFU at 80 uM incubated for 24 hrs. Type of test: functional.
Test [16] relates to Escherichia coli. Nature of the test: Potentiation of ciprofloxacin-induced antibiofilm activity against Escherichia coli UTI89 assessed as increase in ciprofloxacin-induced reduction in CFU at 20 uM incubated for 24 hrs relative to control. Type of test: functional. Also noted: scale not given: the % may be the effect or the level left.
Test [17] deals with Escherichia coli. Nature of the test: Potentiation of ciprofloxacin-induced antibiofilm activity against Escherichia coli UTI89 assessed as increase in ciprofloxacin-induced reduction in CFU at 40 uM incubated for 24 hrs relative to control. Type of test: functional. Also noted: scale not given: the % may be the effect or the level left.
Test [18] deals with Escherichia coli. Nature of the test: Potentiation of ciprofloxacin-induced antibiofilm activity against Escherichia coli UTI89 assessed as increase in ciprofloxacin-induced reduction in CFU at 80 uM incubated for 24 hrs relative to control. It counts as functional. Also noted: scale not given: the % may be the effect or the level left.
Test [19] relates to T-24. Nature of the test: Cytotoxicity against human T24 cells assessed as reduction in cell viability incubated for 24 hrs by LDH assay. It counts as cell-based.
The mark [20] stands for this setting: Escherichia coli, UTI89, 18 h, read-out: MIC.

Calls of active or inactive are those of the source.

Consider `CC1(C)CC(C(=O)O)CC(C)(C)N1[O]`, for which the MIC was over 1000 µM in [1] and “<=0.045 uM” in test [2]. In addition, the MBEC is over 1000 µM in test [3] and “<=800 uM” in test [4].

In the case of `CON1C(C)(C)CC(C(=O)NCCCC[C@H](NC(=O)[C@@H](N)CCCCNC(=O)C2CC(C)(C)N(OC)C(C)(C)C2)C(=O)N2CCN(c3cc4c(cc3F)c(=O)c(C(=O)O)cn4C3CC3)CC2)CC1(C)C`, in [1] (setting [20]), the MIC was at most 81.6 µM. The MBEC in [3] is over 650 µM.

`CC1(C)CC(C(=O)NCCCC[C@H](NC(=O)[C@@H](N)CCCCNC(=O)C2CC(C)(C)N([O])C(C)(C)C2)C(=O)N2CCN(c3cc4c(cc3F)c(=O)c(C(=O)O)cn4C3CC3)CC2)CC(C)(C)N1[O]`: the MIC entry in test [1] is “<=10.5 uM”. Besides, the MBEC result in [3] was “<=400 uM”. Further, the Ratio in test [5] stood at 2. The Activity in test [6] was 99.7%; in test [10] it was over 99%; in test [11] it was 99.9%; in test [13], 1.35 log10CFU; in [14], 1.82 log10CFU; in test [15] it was 2.69 log10CFU. Besides, the Activity in test [16] is listed as 98%; in test [17] it was 93%; in test [18], 50%. Also, the “fold change (FC)” value in [7] worked out at 3. Further, the outcome in test [8], in [9] and in [12] was Active. Moreover, in test [19], the IC50 is over 500 µM.

Turning to `CC1(C)CC(C(=O)NCCCC[C@H](N)C(=O)N2CCN(c3cc4c(cc3F)c(=O)c(C(=O)O)cn4C3CC3)CC2)CC(C)(C)N1[O]`, the MIC in test [1] is under 1.95 µM. Moreover, the MBEC in test [3] was over 1000 µM.

For `CON1C(C)(C)CC(C(=O)NCCCC[C@H](N)C(=O)N2CCN(c3cc4c(cc3F)c(=O)c(C(=O)O)cn4C3CC3)CC2)CC1(C)C`, in test [1] (setting [20]), the MIC was at most 30.6 µM. This compound also returned an MBEC in [3] of over 1000 µM.

`O=C(O)c1cn(C2CC2)c2cc(N3CCNCC3)c(F)cc2c1=O` [CIPROFLOXACIN]: in test [1] (setting [20]), the MIC was at most 0.045 µM. For the same compound, the MBEC result in [3] was “<=800 uM”.

For orientation: MIC means the smallest concentration in the dilution series that meets the test's criterion for growth inhibition. In general, IC50 refers to the concentration that inhibits the measured activity by half.
